SMILES strings stand for the structures.

The test system of assay [1] is PA-1. Kind of assay: Growth inhibition of human PA1 cells at 1 x 10^-5 M after 24 hrs by MTT assay relative to control. The assay is classed as functional. Conditions: PA-1, 24 h, read-out: GI. (In general: Tetrazolium assays rely on reduction of a dye to a coloured formazan, in cell work by metabolically active cells.)
For assay [2], the system named is HepG2. Kind of assay: Growth inhibition of human HepG2 cells at 1 x 10^-5 M after 24 hrs by MTT assay relative to control. To be noted: HepG2, 24 h, read-out: GI. The assay is classed as functional.
The subject of assay [3] is NCI-H522. Kind of assay: Growth inhibition of human NCI-H522 cells at 1 x 10^-5 M after 24 hrs by MTT assay relative to control. The assay is classed as functional. Conditions: NCI-H522, 24 h, read-out: GI.
In assay [4] the test system is T47D. Kind of assay: Growth inhibition of human T47D cells at 1 x 10^-5 M after 24 hrs by MTT assay relative to control. To be noted: read-out: GI. The assay is classed as functional.
In assay [5] the test system is HCT-15. Kind of assay: Growth inhibition of human HCT15 cells at 1 x 10^-5 M after 24 hrs by MTT assay relative to control. To be noted: HCT-15, 24 h, read-out: GI. The assay is classed as functional.
For assay [6], the system named is HepG2. Kind of assay: Growth inhibition of human HepG2 cells after 24 hrs by MTT assay. To be noted: HepG2, 24 h. The assay is classed as functional, cell-based.
Assay [7] has as its system NCI-H522. Kind of assay: Growth inhibition of human NCI-H522 cells after 24 hrs by MTT assay. The assay is classed as functional, cell-based. To be noted: NCI-H522, 24 h.
The nature of assay [8]: Selectivity index, ratio of IC50 for HEK293T cells to IC50 for human HCT15 cells. The assay is classed as functional.
A short description of assay [9]: Selectivity index, ratio of IC50 for HEK293T cells to IC50 for human PA1 cells. The assay is classed as functional.
A short description of assay [10]: Selectivity index, ratio of IC50 for HEK293T cells to IC50 for human T47D cells. The assay is classed as functional.
The test system of assay [11] is PA-1. Kind of assay: Growth inhibition of human PA1 cells after 24 hrs by MTT assay. The assay is classed as functional, cell-based. To be noted: PA-1, 24 h.
Assay [12] in a line: Selectivity index, ratio of IC50 for HEK293T cells to IC50 for human HepG2 cells. The assay is classed as functional.
The test system of assay [13] is HCT-15. Kind of assay: Growth inhibition of human HCT15 cells after 24 hrs by MTT assay. To be noted: HCT-15, 24 h. The assay is classed as functional, cell-based.
The test system of assay [14] is T47D. Kind of assay: Growth inhibition of human T47D cells after 24 hrs by MTT assay. The assay is classed as functional, cell-based.
The nature of assay [15]: Selectivity index, ratio of IC50 for HEK293T cells to IC50 for human NCI-H522 cells. The assay is classed as functional.
The test system of a further assay is HEK-293T. Kind of assay: Growth inhibition of HEK293T cells after 24 hrs by MTT assay. The assay is classed as cell-based. To be noted: Homo sapiens.

Turning to `O=C1C2CCCCC2C(=O)N1CCCC1OCC2(CO1)COC(CCCN1C(=O)C3CCCCC3C1=O)OC2` (stereo not drawn), the inhibition of growth at 10 µM stood at 15% with PA-1 [1]; 13% in the assay on HepG2 [2]; 28% in the assay with NCI-H522 [3]; 11% with T47D [4]; 21% in the assay on HCT-15 [5].

Usually IC50 stands for the concentration that inhibits the measured activity by half. High values mean weaker potency in that assay, low ones greater potency in that assay. For the compound `O=C1C2CC=CCC2C(=O)N1c1ccc(S(=O)(=O)c2ccc(N3C(=O)C4CC=CCC4C3=O)cc2)cc1` (stereo not drawn), the IC50 in the assay on HepG2 [6] worked out at 18.3 µM; with NCI-H522 [7], 37.1 µM; in the assay on PA-1 [11], 32.1 µM; with HCT-15 [13] it was 14.4 µM; in the assay with T47D [14], 31.1 µM; in the assay on HEK-293T, 42.2 µM. Further, the “Ratio IC50” value in assay [8], in assay [9], in assay [10], in assay [12] and in [15] was 2.5 - 4.5 throughout. The inhibition of growth at 10 µM amounted to 41% with PA-1 [1]; 19% with HepG2 [2]; 56% with NCI-H522 [3]; 41% in the assay with T47D [4]; 51% in the assay with HCT-15 [5].

Consider `O=C1c2nc[nH]c2C(=O)N1CCN1C(=O)c2nc[nH]c2C1=O`, for which the IC50 in the assay with HepG2 [6] came to 24.1 µM; in the assay with NCI-H522 [7], 32.8 µM; with PA-1 [11] it was 17.5 µM; with HCT-15 [13], 17.9 µM; with T47D [14], 19.1 µM; in the assay with HEK-293T, 62.7 µM. Besides, the “Ratio IC50” value in assay [8], in assay [9], in assay [10], in assay [12] and in assay [15] was 2.5 - 4.5 each time. The inhibition of growth at 10 µM in the assay on PA-1 [1] is 24%; with HepG2 [2], 38%; in the assay with NCI-H522 [3] it was 56%; in the assay with T47D [4], 21%; in the assay with HCT-15 [5], 33%.

For `O=C1C2CCCCC2C(=O)N1CCCN1CCN(CCCN2C(=O)C3CCCCC3C2=O)CC1` (stereo not drawn), the inhibition of growth at 10 µM with PA-1 [1] was found to be 6%; in the assay with HepG2 [2], 19%; in the assay on NCI-H522 [3], 9%; in the assay with T47D [4] it was 11%; with HCT-15 [5] it was 8%.

In the case of `O=C1C2CC=CCC2C(=O)N1CCOCCOCCN1C(=O)C2CC=CCC2C1=O` (stereo not drawn), the IC50 with HepG2 [6] was found to be 17.3 µM; with NCI-H522 [7] it was 38 µM; with PA-1 [11], 18.8 µM; with HCT-15 [13], 21.1 µM; with T47D [14] it was 14.5 µM; in the assay with HEK-293T, 44.2 µM. Further, the “Ratio IC50” value in assay [8], in assay [9], in [10], in assay [12] and in assay [15] was 2.5 - 4.5 throughout. Besides, the inhibition of growth at 10 µM stood at 31% in the assay with PA-1 [1]; 53% with HepG2 [2]; 59% with NCI-H522 [3]; 51% with T47D [4]; 45% in the assay with HCT-15 [5].

Regarding `O=C1C2CCCCC2C(=O)N1CCOCCOCCN1C(=O)C2CCCCC2C1=O` (stereo not drawn), the half-inhibitory concentration (IC50) in the assay with HepG2 [6] was 27.5 µM; in the assay on NCI-H522 [7], 32.4 µM; in the assay on PA-1 [11] it was 19 µM; in the assay on HCT-15 [13], 23.8 µM; with T47D [14], 15.9 µM; in the assay on HEK-293T, > 100 µM. Also, the inhibition of growth at 10 µM in the assay with PA-1 [1] came out at 25%; in the assay on HepG2 [2] it was 37%; in the assay on NCI-H522 [3], 29%; in the assay with T47D [4], 31%; with HCT-15 [5] it was 51%.

Turning to `O=C1c2nccnc2C(=O)N1CCCC1OCC2(CO1)COC(CCCN1C(=O)c3nccnc3C1=O)OC2` (stereo not drawn), the half-inhibitory concentration (IC50) worked out at 12.4 µM in the assay on HepG2 [6]; 28.2 µM with NCI-H522 [7]; 43.7 µM in the assay with PA-1 [11]; 22.7 µM in the assay with HCT-15 [13]; 20.1 µM in the assay with T47D [14]; 55.9 µM in the assay on HEK-293T. The “Ratio IC50” value in assay [8], in [9], in assay [10], in [12] and in [15] was 2.5 - 4.5 in each case. Also, the inhibition of growth at 10 µM amounted to 20% with PA-1 [1]; 53% in the assay on HepG2 [2]; 43% in the assay with NCI-H522 [3]; 49% with T47D [4]; 35% in the assay with HCT-15 [5].

Take `O=C1C2CC=CCC2C(=O)N1CCCN1CCN(CCCN2C(=O)C3CC=CCC3C2=O)CC1` (stereo not drawn): the inhibition of growth at 10 µM was 10% with PA-1 [1]; 39% in the assay on HepG2 [2]; 37% in the assay on NCI-H522 [3]; 29% in the assay on T47D [4]; 18% in the assay with HCT-15 [5].

For the compound `O=C1C2CCCCC2C(=O)N1c1ccc(S(=O)(=O)c2ccc(N3C(=O)C4CCCCC4C3=O)cc2)cc1` (stereo not drawn), the IC50 in the assay on HepG2 [6] came to 17.1 µM; in the assay on NCI-H522 [7] it was 19.6 µM; in the assay on PA-1 [11], 22.6 µM; with HCT-15 [13], 63.3 µM; in the assay with T47D [14] it was 12.7 µM; in the assay on HEK-293T it was 43.6 µM. Moreover, the “Ratio IC50” value in assay [8], in assay [9], in assay [10], in assay [12] and in [15] was 2.5 - 4.5 throughout. Also, the inhibition of growth at 10 µM was 36% in the assay with PA-1 [1]; 57% in the assay on HepG2 [2]; 49% with NCI-H522 [3]; 51% in the assay on T47D [4]; 65% with HCT-15 [5].

For the compound `C[C@@H]1C[C@@H]([C@H](O)CC2CC(=O)NC(=O)C2)C(=O)[C@@H](C)C1` [CYCLOHEXIMIDE], the 50% inhibitory concentration (IC50) with HepG2 [6] was 55.1 µM; with NCI-H522 [7], 62.1 µM; in the assay on HCT-15 [13] it was 52.3 µM; in the assay on HEK-293T, > 100 µM. The inhibition of growth at 10 µM is 33% in the assay on PA-1 [1]; 21% with HepG2 [2]; 18% in the assay on NCI-H522 [3]; 23% in the assay with T47D [4]; 21% with HCT-15 [5].

As to `O=P1(N(CCCl)CCCl)NCCCO1` (stereo not drawn) [CYCLOPHOSPHAMIDE ANHYDROUS], the half-maximal inhibitory concentration (IC50) in the assay on HepG2 [6] was 52.3 µM; in the assay with NCI-H522 [7] it was 69.9 µM; in the assay on HCT-15 [13], 76.3 µM; in the assay on T47D [14], 69 µM; with HEK-293T it was > 100 µM. Moreover, the inhibition of growth at 10 µM stood at 24% in the assay on PA-1 [1]; 22% with HepG2 [2]; 11% in the assay with NCI-H522 [3]; 23% in the assay on T47D [4]; 10% with HCT-15 [5].

`O=c1[nH]cc(F)c(=O)[nH]1` [FLUOROURACIL]: the results for the half-inhibitory concentration (IC50) in the assay on HepG2 [6], with NCI-H522 [7] and in the assay on HEK-293T were 32.9 µM, 55.6 µM and > 100 µM, respectively. Also, the inhibition of growth at 10 µM in the assay with PA-1 [1] was 7%; in the assay with HepG2 [2], 17%; in the assay on NCI-H522 [3], 27%; with T47D [4], 24%; in the assay on HCT-15 [5], 12%.

The record behind these values is ChEMBL document CHEMBL4041541, “Solvent free, catalyst free, microwave or grinding assisted synthesis of bis-cyclic imide derivatives and their evaluation for anticancer activity” (Bioorg Med Chem Lett, 2017).
